The source of these data is patent US12681018B2, “Photoactive fluorescent compounds and use thereof for labeling of proteins” (EIKON THERAPEUTICS, INC., priority 2021, dated 2026).

≈ marks a conversion by molar mass, not a printed value. Where two headings read alike, the source gives them in different places. Some results are limits rather than exact numbers.

Data set [1] can be described thus: Kinetic solubility in PBS at 7.4. The class given is physicochemical. The conditions noted are these: PBS buffer, aqueous buffer, kinetic from dmso stock, pH 7.4, 500 μM final concentration, 1.5 hours at room temperature, average of three runs, read-out: Ksol. Here is the method:
190 μL of buffer solution (PBS, pH 7.4) was added to wells on a 96-well Millipore Solubility filter plate. Then 10 μL of test compound in DMSO (10 mM) were added to give final concentration of 500 μM.
The filter plate was shaken for 1.5 hours at room temperature in the dark and samples were filtered via a vacuum system into a fresh 96-well plate. Samples were diluted to 500 μM (highest concentration) in DMSO and further diluted (1:10) to provide three-point calibration curve. Absorbance was measured using HPLC/UV analysis at 220 nm, 254 nm, and 280 nm.

Data set [2] deals with histone H2B-HaloTag fusion. The data set is described as follows: Halo-protein specificity (Specificity Factor), single-molecule imaging in U2OS cells. It counts as cell-based. The conditions noted are these: ratio of slope (spots vs dye concentration, 1-200 nM, 45 minutes) relative to PA-JF549. Here is the method: The following day the cells were incubated with PA-JF549 or Examples 1-4 at a range of concentrations between 200 nM and 1 nM for 45 minutes. […] Samples were imaged on a Nikon Ti2 microscope with fiber-optic coupled illumination source. […] Images were collected every 10 msec for 5 seconds per field of view and pulses of ascending intensity 405 nm light (between 0 and 12 mW at the coverslip) were used to photoactivate dye molecules.
For each dye compound, a linear regression was used to determine the relationship between the concentration of dye compound and the number of fluorescence spots detected on the microscope, where in WT cells the ideal dye would have no correlation between compound concentration and number of slots measured. The Specificity Factor was calculated as the ratio of the slope of the compound in question relative to the slope calculated for PA-JF549 and is shown in Table 3 below.

Data set [3] deals with T1, Estrogen Receptor-HaloTag (ER-Halo) fusion (Rhodococcus rhodochrous, UniProt P0A3G2, A155T/A167V/A172T/A224E/C128F/C176G/D78G/E160K/E257K/H272N/K175M/K195N/L47V/L88M/N227D/P291S/S58T/T264A/Y273L/Y87F).
T1 construct: expressed in transfected cells; host or cells: U2OS
T1 sequence (P03372 whole entry, the tested form may be a part): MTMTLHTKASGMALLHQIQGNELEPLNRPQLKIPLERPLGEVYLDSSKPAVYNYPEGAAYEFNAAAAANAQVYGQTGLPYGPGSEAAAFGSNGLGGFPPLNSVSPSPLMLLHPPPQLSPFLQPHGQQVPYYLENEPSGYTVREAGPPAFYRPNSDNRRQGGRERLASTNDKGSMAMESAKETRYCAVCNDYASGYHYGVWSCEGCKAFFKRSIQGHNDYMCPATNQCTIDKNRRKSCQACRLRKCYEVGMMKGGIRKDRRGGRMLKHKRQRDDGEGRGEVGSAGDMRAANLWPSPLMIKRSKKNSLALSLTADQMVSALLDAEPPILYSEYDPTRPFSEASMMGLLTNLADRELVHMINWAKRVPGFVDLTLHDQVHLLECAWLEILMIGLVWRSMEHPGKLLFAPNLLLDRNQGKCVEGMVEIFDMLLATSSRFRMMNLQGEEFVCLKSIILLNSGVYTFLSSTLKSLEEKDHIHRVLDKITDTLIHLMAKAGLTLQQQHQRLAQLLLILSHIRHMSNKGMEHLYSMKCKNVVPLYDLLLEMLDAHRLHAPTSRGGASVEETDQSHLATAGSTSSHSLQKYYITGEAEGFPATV
T1 sequence (P0A3G2 other isoform, or with tags, fused parts or gaps with the stated changes): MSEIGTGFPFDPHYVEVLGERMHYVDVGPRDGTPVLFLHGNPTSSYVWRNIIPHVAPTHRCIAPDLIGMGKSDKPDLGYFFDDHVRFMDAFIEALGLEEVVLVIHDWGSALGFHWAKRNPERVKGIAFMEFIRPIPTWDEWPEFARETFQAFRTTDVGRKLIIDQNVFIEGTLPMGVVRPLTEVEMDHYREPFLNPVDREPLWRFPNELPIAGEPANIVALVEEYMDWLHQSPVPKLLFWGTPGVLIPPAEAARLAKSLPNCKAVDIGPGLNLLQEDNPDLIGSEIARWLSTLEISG
It counts as cell-based. The conditions noted are these: tracks in WT U2OS cells, ratio with PA-JF549 in the numerator, 100 nM, 1 hr. Here is the method: Using the methods described in Tables 4a and 4b above, labelling specificity of the compound of Examples 1-24 was measured and compared to PA-JF549. U2OS cells wild type or expressing ER-HaloTag fusion were incubated with PA-JF549 or Examples 1-24 for 1 hr. […] Labeling specificity, as measured by the fold reduction in nonspecific labeling of WT cells, was calculated by number of tracks measured in WT cells for Examples 1-24 compared to the number of tracks in WT cells for PA-JF549, expressed as the ratio with PA-JF549 in the numerator.

For the molecule `[N-]=[N+]=C1C(=O)c2ccc(C(=O)NCCOCCOCCCCCCCl)cc2C12c1ccc(N3CC(C(=O)O)C3)cc1Oc1cc(N3CC(C(=O)O)C3)ccc12` [Example 2, 1,1′-(6-((2-(2-((6-chlorohexyl)oxy)ethoxy)ethyl)carbamoyl)-2-diazo-3-oxo-2,3-dihydrospiro[indene-1,9′-xanthene]-3′,6′-diyl)bis(azetidine-3-carboxylic acid)], the solubility kinetic at 1.5 h in data set [1] came out at 481 µM (≈ 371 µg/mL). Also, the “Specificity Factor” value in data set [2] was less than 1. The “Fold reduction in nonspecific labeling” value in data set [3] (Table 4a) and in data set [3] (Table 4b) was greater than 10 each time.

As for `COC(=O)C1CN(c2ccc3c(c2)Oc2cc(N4CC(C(=O)OC)C4)ccc2C32C(=[N+]=[N-])C(=O)c3ccc(C(=O)NCCOCCOCCCCCCCl)cc32)C1` [Example 1, dimethyl 1,1′-(6-((2-(2-((6-chlorohexyl)oxy)ethoxy)ethyl)carbamoyl)-2-diazo-3-oxo-2,3-dihydrospiro[indene-1,9′-xanthene]-3′,6′-diyl)bis(azetidine-3-carboxylate)], in data set [1], the solubility kinetic at 1.5 h amounted to 58.4 µM (≈ 46.7 µg/mL). In addition, the “Specificity Factor” value in data set [2] turned out to be 2.66. Besides, the “Fold reduction in nonspecific labeling” value in data set [3] (Table 4a) and in data set [3] (Table 4b) was greater than 10 in each case.

In the case of `[N-]=[N+]=C1C(=O)c2ccc(C(=O)NCCOCCOCCCCCCCl)cc2C12c1ccc(N3CC[C@@H]3CO)cc1Oc1cc(N3CC[C@@H]3CO)ccc12` [Example 15, N-(2-(2-((6-chlorohexyl)oxy)ethoxy)ethyl)-2-diazo-3′,6′-bis((R)-2-(hydroxymethyl)azetidin-1-yl)-3-oxo-2,3-dihydrospiro[indene-1,9′-xanthene]-6-carboxamide], the “Fold reduction in nonspecific labeling” value in data set [3] (Table 4a) and in data set [3] (Table 4b) was 5-10 each time.

Consider `[N-]=[N+]=C1C(=O)c2ccc(C(=O)NCCOCCOCCCCCCCl)cc2C12c1ccc(N3CC(C(=O)N4CCCC4)C3)cc1Oc1cc(N3CC(C(=O)N4CCCC4)C3)ccc12` [Example 10, N-(2-(2-((6-chlorohexyl)oxy)ethoxy)ethyl)-2-diazo-3-oxo-3′,6′-bis(3-(pyrrolidine-1-carbonyl)azetidin-1-yl)-2,3-dihydrospiro[indene-1,9′-xanthene]-6-carboxamide], for which the “Fold reduction in nonspecific labeling” value in data set [3] (Table 4a) and in data set [3] (Table 4b) was 5-10 in each case.

As to `CN(C)C(=O)C1CN(c2ccc3c(c2)[Si](C)(C)c2cc(N4CC(C(=O)N(C)C)C4)ccc2C32C(=[N+]=[N-])C(=O)c3ccc(C(=O)NCCOCCOCCCCCCCl)cc32)C1` [Example 19], the “Fold reduction in nonspecific labeling” value in data set [3] (Table 4b) is on record as greater than 10.

Regarding `CN(CCOCCOCCCCCCCl)C(=O)c1ccc2c(c1)C1(C(=[N+]=[N-])C2=O)c2ccc(N3CCC3)cc2Oc2cc(N3CCC3)ccc21` [Example 8, 3′,6′-di(azetidin-1-yl)-N-(2-(2-((6-chlorohexyl)oxy)ethoxy)ethyl)-2-diazo-N-methyl-3-oxo-2,3-dihydrospiro[indene-1,9′-xanthene]-6-carboxamide], the “Fold reduction in nonspecific labeling” value in data set [3] (Table 4a) and in data set [3] (Table 4b) was 5-10 throughout.

For the molecule `CN(C)C(=O)[C@@H]1CCN1c1ccc2c(c1)Oc1cc(N3CC[C@H]3C(=O)N(C)C)ccc1C21C(=[N+]=[N-])C(=O)c2ccc(C(=O)NCCOCCOCCCCCCCl)cc21` [Example 14, (2S,2'S)-1,1′-(6-((2-(2-((6-chlorohexyl)oxy)ethoxy)ethyl)carbamoyl)-2-diazo-3-oxo-2,3-dihydrospiro[indene-1,9′-xanthene]-3′,6′-diyl)bis(N,N-dimethylazetidine-2-carboxamide)], the “Fold reduction in nonspecific labeling” value in data set [3] (Table 4a) and in data set [3] (Table 4b) was greater than 10 each time.

`COC[C@H]1CCN1c1ccc2c(c1)Oc1cc(N3CC[C@@H]3COC)ccc1C21C(=[N+]=[N-])C(=O)c2ccc(C(=O)NCCOCCOCCCCCCCl)cc21` [Example 3, N-(2-(2-((6-chlorohexyl)oxy)ethoxy)ethyl)-2-diazo-3′,6′-bis((R)-2-(methoxymethyl)azetidin-1-yl)-3-oxo-2,3-dihydrospiro[indene-1,9′-xanthene]-6-carboxamide]: in data set [1], the solubility kinetic at 1.5 h worked out at 39.5 µM (≈ 30.5 µg/mL). Also, in data set [2], the “Specificity Factor” value was found to be 2.07. Besides, the “Fold reduction in nonspecific labeling” value in data set [3] (Table 4a) and in data set [3] (Table 4b) was 1-5 in each case.

On to “(E)-3′,6′-di(azetidin-1-yl)-6-(4-(2-((6-chlorohexyl)oxy)ethoxy)but-1-en-1-yl)-2-diazospiro[indene-1,9′-xanthen]-3(2H)-one and (Z)-3′,6′-di(azetidin-1-yl)-6-(4-(2-((6-chlorohexyl)oxy)ethoxy)but-1-en-1-yl)-2-diazospiro[indene-1,9′-xanthen]-3(2H)-one [Example 23]”, for which the “Fold reduction in nonspecific labeling” value in data set [3] (Table 4b) was greater than 10.

As to `CN(C)C(=O)C1CN(c2ccc3c(c2)Oc2cc(N4CC(C(=O)N(C)C)C4)ccc2C32C(=[N+]=[N-])C(=O)c3ccc(C(=O)NCCOCCOCCCCCCCl)cc32)C1` [Example 4, 1,1′-(6-((2-(2-((6-chlorohexyl)oxy)ethoxy)ethyl)carbamoyl)-2-diazo-3-oxo-2,3-dihydrospiro[indene-1,9′-xanthene]-3′,6′-diyl)bis(N,N-dimethylazetidine-3-carboxamide)], in data set [1], the solubility kinetic at 1.5 h was found to be 3.69 µM (≈ 3.05 µg/mL). In data set [2], the “Specificity Factor” value worked out at 23.8. Also, the “Fold reduction in nonspecific labeling” value in data set [3] (Table 4a) and in data set [3] (Table 4b) was greater than 10 throughout.

`[N-]=[N+]=C1C(=O)c2ccc(C(=O)NCCOCCOCCCCCCCl)cc2C12c1ccc(N3CC(O)C3)cc1Oc1cc(N3CC(O)C3)ccc12` [Example 7, N-(2-(2-((6-chlorohexyl)oxy)ethoxy)ethyl)-2-diazo-3′,6′-bis(3-hydroxyazetidin-1-yl)-3-oxo-2,3-dihydrospiro[indene-1,9′-xanthene]-6-carboxamide]: the “Fold reduction in nonspecific labeling” value in data set [3] (Table 4a) and in data set [3] (Table 4b) was greater than 10 throughout.

As to `[N-]=[N+]=C1C(=O)c2ccc(CCCCOCCOCCCCCCCl)cc2C12c1ccc(N3CCC3)cc1Oc1cc(N3CCC3)ccc12` [Example 24, 3′,6′-di(azetidin-1-yl)-6-(4-(2-((6-chlorohexyl)oxy)ethoxy)butyl)-2-diazospiro[indene-1,9′-xanthen]-3(2H)-one], the “Fold reduction in nonspecific labeling” value in data set [3] (Table 4b) was 1-5.

Regarding `CNC(=O)C1CN(c2ccc3c(c2)Oc2cc(N4CC(C(=O)NC)C4)ccc2C32C(=[N+]=[N-])C(=O)c3ccc(C(=O)NCCOCCOCCCCCCCl)cc32)C1` [Example 12, 1,1′-(6-((2-(2-((6-chlorohexyl)oxy)ethoxy)ethyl)carbamoyl)-2-diazo-3-oxo-2,3-dihydrospiro[indene-1,9′-xanthene]-3′,6′-diyl)bis(N-methylazetidine-3-carboxamide)], the “Fold reduction in nonspecific labeling” value in data set [3] (Table 4a) and in data set [3] (Table 4b) was greater than 10 throughout.

For the molecule “1,1′-(6-((2-(2-((6-chlorohexyl)oxy)ethoxy)ethyl)carbamoyl)-2-diazo-3-oxo-2,3-dihydrospiro[indene-1,9′-xanthene]-3′,6′-diyl)bis(azetidine-3-carboxamide [Example 20]”, the “Fold reduction in nonspecific labeling” value in data set [3] (Table 4b) is given as greater than 10.

Turning to `CN1CCN(C(=O)C2CN(c3ccc4c(c3)Oc3cc(N5CC(C(=O)N6CCN(C)CC6)C5)ccc3C43C(=[N+]=[N-])C(=O)c4ccc(C(=O)NCCOCCOCCCCCCCl)cc43)C2)CC1` [Example 11, N-(2-(2-((6-chlorohexyl)oxy)ethoxy)ethyl)-2-diazo-3′,6′-bis(3-(4-methylpiperazine-1-carbonyl)azetidin-1-yl)-3-oxo-2,3-dihydrospiro[indene-1,9′-xanthene]-6-carboxamide], the “Fold reduction in nonspecific labeling” value in data set [3] (Table 4a) and in data set [3] (Table 4b) was 1-5 in each case.
